{
  "source": "patent US20180098969A1",
  "about": "“HODGKIN LYMPHOMA THERAPY” (Purdue Pharmaceutical Products L.P., priority 2016, published 2018)",
  "key": {"[1]": {"tested_on": "L428 cells", "assay": "Cytogenetic investigation of cells from xenografted mice", "assay_type": "in vivo, NSG mice", "conditions": "different doses including single 60 mg/kg", "method": "Separated cells were cultured in the presence of RPMI 1640 supplemented with 10% Fetal Calf Serum (FCS) and antibiotics, colcemid (0.1 μg/ml) added 2 h before harvesting, and the slides with metaphase chromosomes prepared following the standard methanol/acetic acid (3/1, v/v) procedure.\nFour new cell lines were generated after one month of in vitro culture following 24 hour of exposure to EDO-S101. Fluorescence in situ hybridysation (FISH) was performed using a combination of standard procedures from the recommended protocols for chromosomal analysis, following telomere and centromere staining, using peptide nucleic acid (PNA) probes in order to detect unstable chromosomal aberrations and to delimit the chromosome territory. M-FISH was performed using multi-FISH probes (Metasystems GmbH, Altlussheim, Germany), according to the manufacturer's recommendations on the same slide. Images of hybridized metaphases were captured using a charge coupled device camera (Zeiss, Thornwood, N.Y.) coupled to a Zeiss Axioplan microscope and processed using ISIS software (Metasystems).\nThe ocular tumour masses were harvested, as well as cells which infiltrated the liver. Five new cell lines were established from ocular tumours and the livers of both control mice (PBS or vehicle). […]"}, "[2]": {"tested_on": "L1236-R100", "assay": "Viable cell count and IC50, bendamustine-resistant line", "assay_type": "cell-based, human", "method": "(b) The bendamustine-resistant Hodgkin lymphoma cell line L1236-R100, non-resistant L1236 Hodgkin lymphoma cell line cultured in DMSO L1236/DMSO and L1236 […] Control cells were cultured in the same final concentration of DMSO. The number of viable cells was assessed at 24, 48 and 72 hours through a Countess™ automated cell counter (Invitrogen), each experiment being repeated three times and the results given being the mean of the three results ±SD."}, "[3]": {"tested_on": "R100 cell line", "assay": "ATM/ATR transcripts", "assay_type": "cell-based, human", "conditions": "EDO-S101 alone", "method": "1.56 μM of EDO-S101 was administered to two Hodgkin lymphoma cell lines, the bendamustine naïve cell line L1236 and the bendamustine resistant cell line R100. In a second experiment, Brentuximab Vedotin was administered at a concentration of 3.12 μg/ml to the L1236 cell line and at a concentration of 0.39 μg/ml to the R100 cell line. Finally, in a third experiment EDO-S101 and Brentuximab Vedotin were administered in combination to each of the two cell lines at the same concentrations that they were administered in the monotherapy experiments."}, "[4]": {"tested_on": "Hodgkin lymphoma cell lines (KMH2, HDML2, L540, L1236 and L426)", "assay": "IC50 comparison of bendamustine, vorinostat and EDO-S101", "assay_type": "cell-based, human", "conditions": "tumour cells of Hodgkin lymphoma", "method": "(a) Five Hodgkin lymphoma cell lines (KMH2, HDML2, L540, L1236 and L426) were cultured separately in the presence of bendamustine, vorinostat and EDO-S101 dissolved in DMSO at 37° C. L1236-derived Hodgkin lymphoma cell lines were selected as they have an acquired stable resistance to bendamustine (R100) or an ability to display continuous growth upon extended exposure to sub-lethal concentrations of bendamustine (R25, R50 and R75). A detailed description of the L1236-R Hodgkin lymphoma cell lines is disclosed in De Filippi et al, ASH 2015, Abstract. # 2479. In these tests, the L1236-100R bendamustine resistant strain was used."}, "[5]": {"tested_on": "CD14 cells", "assay": "CD14-positive cells by flow cytometry in xenografted mice", "assay_type": "in vivo, NSG mice", "method": "Cells were gated to exclude apoptotic or necrotic cells and sorted into CD30−/CD15− and CD30+ and CD15+/CD30+ fractions by gating on the lowest and highest 5% PE-expressing cells, respectively. Following sorting, the CD30−/CD15− cell fractions were analyzed using a FACScan flow cytometer (Becton Dickinson) and found to be more than 98% pure. For phenotypic analyses of cell lines or sorted cells, cells were prepared as described, and then stained with mouse anti-human CD30-phycoerthrin (PE), CD15-fluorescein isothyocyanate (FITC), CD14-APC-cyanine 7 (Cy7) and CD45-APC (all antibodies from BD PharMingen, San Diego, Calif.). […] Cells were subsequently analysed using a FACS LSRII (Becton Dickinson, Franklin Lakes, N.J.). […]\nNovel biomarkers CD68 and CD14 which are expressed by tumour associated macrophages and myeloid derived suppressor cells respectively in the microenvironment have recently been reported to affect the prognosis of Hodgkin lymphoma (Haematologica, 2011 Feb; 96(2): 186-189). The presence of the CD14-positive cells following administration of a single dose of EDO-S101 (60 mg/kg or 80 mg/kg) and after two administrations of EDO-S101 at 60 mg/kg was evaluated using flow cytometry with anti CD14 antibodies."}, "[6]": {"tested_on": "L428 cells", "assay": "Orbital tumour mass at injection site in xenografted mice", "assay_type": "in vivo, NSG mice", "conditions": "after injection", "method": "Two independent experiments were performed to investigate the dose-effect of EDO-S101 in NSG mice eight weeks after xenografting with L428 cells as in Example 8. The aim of the protocol shown in FIG. 8B was to evaluate the effect of sequential treatment with a moderate dose of 60 mg/kg given at an interval of three weeks.\nSome mice developed an orbital tumour mass at the site of the injection. […] In one mouse only that was treated with two doses of 60 mg/kg of EDO-S101, a regression of the orbital tumour was initially observed followed by re-establishment of the orbital mass 3 weeks later. However, this was the only instance observed of re-establishment of the orbital mass after treatment with EDO-S101 at either concentration."}},
  "data": [
    {"compound": "Cn1c(CCCCCCC(=O)NO)nc2cc(N(CCCl)CCCl)ccc21", "note": "[EDO-S101]", "values": [
      {"measurement": "metaphases or cell lines from cells of treated mice", "setting": "[1]", "value": "not possible to obtain either metaphases from direct culture or establish cell lines"},
      {"measurement": "anti-proliferative activity compared with vorinostat", "setting": "[2]", "value": "greater than that of vorinostat"},
      {"measurement": "viable cells", "setting": "[2]; 48 hours after treatment with 50 μM", "value": "no viable cells being observed"},
      {"measurement": "effect on ATM/ATR unbalance", "setting": "[3]", "value": "upregulating ATR and downregulating ATM transcripts"},
      {"measurement": "IC50s compared with those of bendamustine", "setting": "[4]", "value": "about ten-fold lower"},
      {"measurement": "frequency of CD14 cells", "setting": "[5]; 2×60 mg/kg versus single 80 mg/kg", "value": "higher frequency following treatment with 2×60 mg/kg than treatment with a single dose of 80 mg/kg"},
      {"measurement": "frequency of CD14 cells", "setting": "[5]; treated versus untreated mice", "value": "significantly higher frequency of CD14 cells in untreated mice compared to treated mice"},
      {"measurement": "orbital tumour mass", "setting": "[6]", "value": "signification regression"}
    ]}
  ]
}
